The values that follow come from ChEMBL document CHEMBL1130731, “Methyloxime-substituted aminopyrrolidine: a new surrogate for 7-basic group of quinolone” (Bioorg Med Chem Lett, 1998).

Converted amounts (≈) assume the structure as drawn.

One test has as its system Bacillus subtilis. Description: In vitro antimicrobial activity against Bacillus subtilis ATCC 6633.
Details: not given
Format: functional.
`CO/N=C1\CN(c2nc3c(cc2F)c(=O)c(C(=O)O)cn3C2CC2)CC1N` (stereo unspecified) returned an MIC of at most 0.008 µg/mL.

For the molecule `C=CCO/N=C1\CN(c2c(F)cc3c(=O)c(C(=O)O)cn(C4CC4)c3c2F)CC1N` (stereo unspecified), the MIC is at most 0.008 µg/mL.

For `CNC1CN(c2nc3c(cc2F)c(=O)c(C(=O)O)cn3C2CC2)C/C1=N\OC` (stereo unspecified), the MIC is at most 0.008 µg/mL.

The subject of a further test is Escherichia coli. The experiment in a line: In vitro antimicrobial activity against Escherichia coli 3190Y. Format: functional.
Details: not given
`CO/N=C1\CN(c2nc3c(cc2F)c(=O)c(C(=O)O)cn3C2CC2)CC1N` (stereo unspecified) yielded an MIC of at most 0.008 µg/mL.

`C=CCO/N=C1\CN(c2c(F)cc3c(=O)c(C(=O)O)cn(C4CC4)c3c2F)CC1N` (stereo unspecified) gave an MIC of at most 0.008 µg/mL.

Consider `CNC1CN(c2nc3c(cc2F)c(=O)c(C(=O)O)cn3C2CC2)C/C1=N\OC` (stereo unspecified), for which the MIC is at most 0.008 µg/mL.

The next test concerns Klebsiella aerogenes. Description: In vitro antimicrobial activity against Klebsiella aerogenes 1076E.
Details: not given
Format: functional.
In turn, `CO/N=C1\CN(c2nc3c(cc2F)c(=O)c(C(=O)O)cn3C2CC2)CC1N` (stereo unspecified) returned an MIC of 0.25 µg/mL (≈ 0.666 µM).

`C=CCO/N=C1\CN(c2c(F)cc3c(=O)c(C(=O)O)cn(C4CC4)c3c2F)CC1N` (stereo unspecified) yielded an MIC of 0.25 µg/mL (≈ 0.598 µM).

As to `CNC1CN(c2nc3c(cc2F)c(=O)c(C(=O)O)cn3C2CC2)C/C1=N\OC` (stereo unspecified), the MIC was determined as 0.5 µg/mL (≈ 1.28 µM).

For another test, the system named is Enterobacter cloacae. Description: In vitro antimicrobial activity against Enterobacter cloacae p99. Format: functional.
Details: not given
For the molecule `CO/N=C1\CN(c2nc3c(cc2F)c(=O)c(C(=O)O)cn3C2CC2)CC1N` (stereo unspecified), the MIC came out at 0.016 µg/mL (≈ 0.0426 µM).

Consider `C=CCO/N=C1\CN(c2c(F)cc3c(=O)c(C(=O)O)cn(C4CC4)c3c2F)CC1N` (stereo unspecified), for which the MIC was 0.031 µg/mL (≈ 0.0741 µM).

For `CNC1CN(c2nc3c(cc2F)c(=O)c(C(=O)O)cn3C2CC2)C/C1=N\OC` (stereo unspecified), the MIC is at most 0.008 µg/mL.

The subject of another test is Citrobacter koseri. The experiment in a line: In vitro antimicrobial activity against Citrobacter diversus 2046E. Format: functional.
Details: not given
`CO/N=C1\CN(c2nc3c(cc2F)c(=O)c(C(=O)O)cn3C2CC2)CC1N` (stereo unspecified) displayed a minimal inhibitory concentration (MIC) of 0.063 µg/mL (≈ 0.168 µM).

Take `C=CCO/N=C1\CN(c2c(F)cc3c(=O)c(C(=O)O)cn(C4CC4)c3c2F)CC1N` (stereo unspecified): the MIC amounted to 0.13 µg/mL (≈ 0.311 µM).

With `CNC1CN(c2nc3c(cc2F)c(=O)c(C(=O)O)cn3C2CC2)C/C1=N\OC` (stereo unspecified), the MIC stood at 0.13 µg/mL (≈ 0.334 µM).

The test system of another test is Micrococcus luteus. Description: In vitro antimicrobial activity against Micrococcus luteus ATCC 9341. Format: functional.
Details: not given
In the case of `CO/N=C1\CN(c2nc3c(cc2F)c(=O)c(C(=O)O)cn3C2CC2)CC1N` (stereo unspecified), inhibition of growth (MIC) required 1 µg/mL (≈ 2.66 µM).

As to `C=CCO/N=C1\CN(c2c(F)cc3c(=O)c(C(=O)O)cn(C4CC4)c3c2F)CC1N` (stereo unspecified), the MIC was 0.25 µg/mL (≈ 0.598 µM).

`CNC1CN(c2nc3c(cc2F)c(=O)c(C(=O)O)cn3C2CC2)C/C1=N\OC` (stereo unspecified) returned an MIC of 2 µg/mL (≈ 5.14 µM).

For another test, the system named is Staphylococcus aureus. The experiment in a line: In vitro antimicrobial activity against Staphylococcus aureus 241. Format: functional.
Details: not given
On to `CO/N=C1\CN(c2nc3c(cc2F)c(=O)c(C(=O)O)cn3C2CC2)CC1N` (stereo unspecified), for which 8 µg/mL (≈ 21.3 µM) was the least that counted as inhibitory (MIC).

`C=CCO/N=C1\CN(c2c(F)cc3c(=O)c(C(=O)O)cn(C4CC4)c3c2F)CC1N` (stereo unspecified) gave an MIC of 2 µg/mL (≈ 4.78 µM).

Consider `CNC1CN(c2nc3c(cc2F)c(=O)c(C(=O)O)cn3C2CC2)C/C1=N\OC` (stereo unspecified), for which the minimum inhibitory concentration (MIC) is 16 µg/mL (≈ 41.1 µM).

The test system of the next test is Escherichia coli. Description: In vitro antimicrobial activity against Escherichia coli TEM5 3739E.
Details: not given
Format: functional.
In the case of `CO/N=C1\CN(c2nc3c(cc2F)c(=O)c(C(=O)O)cn3C2CC2)CC1N` (stereo unspecified), 1 µg/mL (≈ 2.66 µM) was the least that counted as inhibitory (MIC).

With `C=CCO/N=C1\CN(c2c(F)cc3c(=O)c(C(=O)O)cn(C4CC4)c3c2F)CC1N` (stereo unspecified), the lowest concentration to inhibit growth (MIC) was 0.5 µg/mL (≈ 1.2 µM).

With `CNC1CN(c2nc3c(cc2F)c(=O)c(C(=O)O)cn3C2CC2)C/C1=N\OC` (stereo unspecified), 1 µg/mL (≈ 2.57 µM) was the least that counted as inhibitory (MIC).

Another test has as its system Staphylococcus aureus. Description: In vitro antimicrobial activity against Staphylococcus aureus giorgio. Format: functional.
Details: not given
In turn, `CO/N=C1\CN(c2nc3c(cc2F)c(=O)c(C(=O)O)cn3C2CC2)CC1N` (stereo unspecified) yielded an MIC of 0.063 µg/mL (≈ 0.168 µM).

Molecule `C=CCO/N=C1\CN(c2c(F)cc3c(=O)c(C(=O)O)cn(C4CC4)c3c2F)CC1N` (stereo unspecified) registered an MIC of 0.016 µg/mL (≈ 0.0382 µM).

As to `CNC1CN(c2nc3c(cc2F)c(=O)c(C(=O)O)cn3C2CC2)C/C1=N\OC` (stereo unspecified), the MIC was 0.031 µg/mL (≈ 0.0796 µM).

Another test relates to Staphylococcus aureus. Description: In vitro antimicrobial activity against Staphylococcus aureus 77. Format: functional.
Details: not given
`CO/N=C1\CN(c2nc3c(cc2F)c(=O)c(C(=O)O)cn3C2CC2)CC1N` (stereo unspecified) yielded an MIC of 0.063 µg/mL (≈ 0.168 µM).

For the molecule `C=CCO/N=C1\CN(c2c(F)cc3c(=O)c(C(=O)O)cn(C4CC4)c3c2F)CC1N` (stereo unspecified), 0.031 µg/mL (≈ 0.0741 µM) was the least that counted as inhibitory (MIC).

Molecule `CNC1CN(c2nc3c(cc2F)c(=O)c(C(=O)O)cn3C2CC2)C/C1=N\OC` (stereo unspecified) yielded an MIC of 0.063 µg/mL (≈ 0.162 µM).

Another test concerns Pseudomonas aeruginosa. The experiment in a line: In vitro antimicrobial activity against Pseudomonas aeruginosa 1012E.
Details: not given
Format: functional.
`CO/N=C1\CN(c2nc3c(cc2F)c(=O)c(C(=O)O)cn3C2CC2)CC1N` (stereo unspecified) registered an MIC of 2 µg/mL (≈ 5.33 µM).

The molecule `C=CCO/N=C1\CN(c2c(F)cc3c(=O)c(C(=O)O)cn(C4CC4)c3c2F)CC1N` (stereo unspecified) returned an MIC of 2 µg/mL (≈ 4.78 µM).

On to `CNC1CN(c2nc3c(cc2F)c(=O)c(C(=O)O)cn3C2CC2)C/C1=N\OC` (stereo unspecified), for which the MIC was determined as 4 µg/mL (≈ 10.3 µM).

The next test relates to Staphylococcus epidermidis. The experiment in a line: In vitro antimicrobial activity against Staphylococcus epidermis 178. Format: functional.
Details: not given
With `CO/N=C1\CN(c2nc3c(cc2F)c(=O)c(C(=O)O)cn3C2CC2)CC1N` (stereo unspecified), the MIC is 8 µg/mL (≈ 21.3 µM).

`C=CCO/N=C1\CN(c2c(F)cc3c(=O)c(C(=O)O)cn(C4CC4)c3c2F)CC1N` (stereo unspecified) yielded an MIC of 2 µg/mL (≈ 4.78 µM).

`CNC1CN(c2nc3c(cc2F)c(=O)c(C(=O)O)cn3C2CC2)C/C1=N\OC` (stereo unspecified) had an MIC of 32 µg/mL (≈ 82.2 µM).

The next test concerns Salmonella typhimurium. The experiment in a line: In vitro antimicrobial activity against Salmonella Typhimurium 14028. Format: functional, Salmonella enterica subsp. enterica serovar Typhimurium. The settings on record: Salmonella enterica.
With `CO/N=C1\CN(c2nc3c(cc2F)c(=O)c(C(=O)O)cn3C2CC2)CC1N` (stereo unspecified), the MIC worked out at 0.13 µg/mL (≈ 0.346 µM).

In turn, `C=CCO/N=C1\CN(c2c(F)cc3c(=O)c(C(=O)O)cn(C4CC4)c3c2F)CC1N` (stereo unspecified) had an MIC of 0.25 µg/mL (≈ 0.598 µM).

As for `CNC1CN(c2nc3c(cc2F)c(=O)c(C(=O)O)cn3C2CC2)C/C1=N\OC` (stereo unspecified), the MIC is 0.25 µg/mL (≈ 0.642 µM).

Another test concerns Escherichia coli. The experiment in a line: In vitro antimicrobial activity against Escherichia coli 851E. Format: functional.
Details: not given
`CO/N=C1\CN(c2nc3c(cc2F)c(=O)c(C(=O)O)cn3C2CC2)CC1N` (stereo unspecified) registered an MIC of 0.063 µg/mL (≈ 0.168 µM).

The molecule `C=CCO/N=C1\CN(c2c(F)cc3c(=O)c(C(=O)O)cn(C4CC4)c3c2F)CC1N` (stereo unspecified) yielded a minimal inhibitory concentration (MIC) of 0.063 µg/mL (≈ 0.151 µM).

For `CNC1CN(c2nc3c(cc2F)c(=O)c(C(=O)O)cn3C2CC2)C/C1=N\OC` (stereo unspecified), it took 0.063 µg/mL (≈ 0.162 µM) to inhibit growth (MIC).

For the next test, the system named is Staphylococcus epidermidis. Description: In vitro antimicrobial activity against Staphylococcus epidermis 887E. Format: functional.
Details: not given
For the molecule `CO/N=C1\CN(c2nc3c(cc2F)c(=O)c(C(=O)O)cn3C2CC2)CC1N` (stereo unspecified), it took 0.063 µg/mL (≈ 0.168 µM) to inhibit growth (MIC).

In turn, `C=CCO/N=C1\CN(c2c(F)cc3c(=O)c(C(=O)O)cn(C4CC4)c3c2F)CC1N` (stereo unspecified) had an MIC of 0.016 µg/mL (≈ 0.0382 µM).

`CNC1CN(c2nc3c(cc2F)c(=O)c(C(=O)O)cn3C2CC2)C/C1=N\OC` (stereo unspecified) registered an MIC of 0.063 µg/mL (≈ 0.162 µM).

The next test has as its system Acinetobacter calcoaceticus. Description: In vitro antimicrobial activity against Acinetobacter calcoaceticus 15473. Format: functional.
Details: not given
With `CO/N=C1\CN(c2nc3c(cc2F)c(=O)c(C(=O)O)cn3C2CC2)CC1N` (stereo unspecified), the MIC is 0.063 µg/mL (≈ 0.168 µM).

On to `C=CCO/N=C1\CN(c2c(F)cc3c(=O)c(C(=O)O)cn(C4CC4)c3c2F)CC1N` (stereo unspecified), for which the MIC was 0.031 µg/mL (≈ 0.0741 µM).

Take `CNC1CN(c2nc3c(cc2F)c(=O)c(C(=O)O)cn3C2CC2)C/C1=N\OC` (stereo unspecified): the MIC was 0.13 µg/mL (≈ 0.334 µM).

A further test has as its system Escherichia coli. The experiment in a line: In vitro antimicrobial activity against Escherichia coli 10536. Format: functional.
Details: not given
In turn, `CO/N=C1\CN(c2nc3c(cc2F)c(=O)c(C(=O)O)cn3C2CC2)CC1N` (stereo unspecified) came in with an MIC of at most 0.008 µg/mL.

`C=CCO/N=C1\CN(c2c(F)cc3c(=O)c(C(=O)O)cn(C4CC4)c3c2F)CC1N` (stereo unspecified) yielded an MIC of 0.031 µg/mL (≈ 0.0741 µM).

In the case of `CNC1CN(c2nc3c(cc2F)c(=O)c(C(=O)O)cn3C2CC2)C/C1=N\OC` (stereo unspecified), the MIC is at most 0.008 µg/mL.
